Source: patent publication US9579314B2 (priority 2015, dated 2017)
Counter-ions that a name gives are not always drawn.

Legend:
Human M3 receptor = Human M3 receptor (Homo sapiens, UniProt P20309); conditions: read-out: M3 binding affinity
Human β2 adrenoceptor = Human β2 adrenoceptor (Homo sapiens, UniProt P07550); conditions: read-out: B2 binding affinity
Human β2 adrenoceptor, sequence (P07550 whole entry): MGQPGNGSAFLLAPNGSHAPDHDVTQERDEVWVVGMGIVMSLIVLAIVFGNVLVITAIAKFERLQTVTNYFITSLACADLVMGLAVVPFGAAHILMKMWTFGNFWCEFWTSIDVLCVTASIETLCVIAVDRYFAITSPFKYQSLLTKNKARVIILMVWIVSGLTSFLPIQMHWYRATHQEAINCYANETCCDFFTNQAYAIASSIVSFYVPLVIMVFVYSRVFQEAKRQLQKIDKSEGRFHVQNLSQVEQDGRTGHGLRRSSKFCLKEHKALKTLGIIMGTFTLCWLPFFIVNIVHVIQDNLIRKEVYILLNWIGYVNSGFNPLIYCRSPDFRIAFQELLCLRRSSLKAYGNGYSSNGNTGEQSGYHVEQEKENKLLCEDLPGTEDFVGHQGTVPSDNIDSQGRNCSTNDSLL

Human M3 receptor, sequence (P20309 whole entry): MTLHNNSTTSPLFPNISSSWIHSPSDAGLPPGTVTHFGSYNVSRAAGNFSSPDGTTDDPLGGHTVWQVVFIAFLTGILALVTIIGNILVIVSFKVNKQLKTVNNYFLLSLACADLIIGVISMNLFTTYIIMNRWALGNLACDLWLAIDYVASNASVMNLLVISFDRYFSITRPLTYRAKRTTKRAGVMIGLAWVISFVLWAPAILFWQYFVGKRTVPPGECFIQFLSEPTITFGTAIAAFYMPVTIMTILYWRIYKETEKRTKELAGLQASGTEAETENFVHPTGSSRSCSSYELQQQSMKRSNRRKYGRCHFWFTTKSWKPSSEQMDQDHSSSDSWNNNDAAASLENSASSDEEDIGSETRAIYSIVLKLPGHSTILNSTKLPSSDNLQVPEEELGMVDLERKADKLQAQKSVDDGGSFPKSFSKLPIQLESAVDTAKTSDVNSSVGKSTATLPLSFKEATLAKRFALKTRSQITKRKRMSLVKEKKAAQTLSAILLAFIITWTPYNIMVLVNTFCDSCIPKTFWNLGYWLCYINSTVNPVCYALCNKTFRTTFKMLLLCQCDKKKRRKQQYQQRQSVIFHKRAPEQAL

| SMILES | IC50 (Human M3 receptor) [nM] | IC50 (Human β2 adrenoceptor) [nM] |
| --- | --- | --- |
| O=C(Nc1cccc(C(O)(C(=O)OCC2CCN(Cc3ccccc3)CC2)c2ccccc2)c1)OCCCCCNC[C@H](O)c1ccc(O)c2[nH]c(=O)ccc12 (stereo partly drawn) [Compound 54, (1-benzylpiperidin-4-yl)methyl 2-hydroxy-2-(3-((((5-(((R)-2-hydroxy-2-(8-hydroxy-2-oxo-1,2-dihydroquinolin-5-yl)ethyl)amino)pentyl)oxy)carbonyl)amino)-phenyl)-2-phenylacetate bis hydrochloride] | 0.3 to 3 | < 0.3 |
| O=C(NCCCNC(=O)c1ccc(CNC[C@H](O)c2ccc(O)c3[nH]c(=O)ccc23)cc1)Nc1cccc(C(O)(C(=O)OCC2CCN(Cc3ccccc3)CC2)c2ccccc2)c1 (stereo partly drawn) [Compound 56, (1-benzylpiperidin-4-yl)methyl 2-hydroxy-2-(3-(3-(3-(4-((((R)-2-hydroxy-2-(8-hydroxy-2-oxo-1,2-dihydroquinolin-5-yl)ethyl)amino)methyl)benzamido)-propyl)ureido)phenyl)-2-phenylacetate diformate] | > 3 | > 3 |
| O=C(COc1cccc([C@](O)(C(=O)OCC2CCN(Cc3ccccc3)CC2)c2ccccc2)c1)NCCNC(=O)c1ccc(CNC[C@H](O)c2ccc(O)c3[nH]c(=O)ccc23)cc1 [Compound 57, (1-Benzylpiperidin-4-yl)methyl (S)-2-hydroxy-2-(3-(2-((2-(4-((((R)-2-hydroxy-2-(8-hydroxy-2-oxo-1,2-dihydroquinolin-5-yl)ethyl)amino)methyl)benzamido)ethyl)amino)-2-oxoethoxy)phenyl)-2-phenylacetate] | 0.3 to 3 | 0.3 to 3 |
| O=C(COc1cccc([C@](O)(C(=O)OCC2CCN(Cc3ccccc3)CC2)c2ccccc2)c1)N1CCN(C(=O)c2ccc(CNC[C@H](O)c3ccc(O)c4[nH]c(=O)ccc34)cc2)CC1 [Compound 58, (1-benzylpiperidin-4-yl)methyl (S)-2-hydroxy-2-(3-(2-(4-(4-((((R)-2-hydroxy-2-(8-hydroxy-2-oxo-1,2-dihydroquinolin-5-yl)ethyl)amino)methyl)benzoyl)piperazin-1-yl)-2-oxoethoxy)phenyl)-2-phenylacetate] | 0.3 to 3 | 0.3 to 3 |
| O=C(NC1CCN(C(=O)COc2cccc([C@](O)(C(=O)OCC3CCN(Cc4ccccc4)CC3)c3ccccc3)c2)CC1)c1ccc(CNC[C@H](O)c2ccc(O)c3[nH]c(=O)ccc23)cc1 [Compound 59, (1-benzylpiperidin-4-yl)methyl (S)-2-hydroxy-2-(3-(2-(4-(4-((((R)-2-hydroxy-2-(8-hydroxy-2-oxo-1,2-dihydroquinolin-5-yl)ethyl)amino)methyl)benzamido)piperidin-1-yl)-2-oxoethoxy)phenyl)-2-phenylacetate] | 0.3 to 3 | < 0.3 |
| CN(CCNC(=O)c1ccc(CNC[C@H](O)c2ccc(O)c3[nH]c(=O)ccc23)cc1)C(=O)COc1cccc([C@](O)(C(=O)OCC2CCN(Cc3ccccc3)CC2)c2ccccc2)c1 [Compound 60, (1-benzylpiperidin-4-yl)methyl (S)-2-hydroxy-2-(3-(2-((2-(4-((((R)-2-hydroxy-2-(8-hydroxy-2-oxo-1,2-dihydroquinolin-5-yl)ethyl)amino)methyl)benzamido)ethyl)(methyl)amino)-2-oxoethoxy)phenyl)-2-phenylacetate] | 0.3 to 3 | 0.3 to 3 |
| O=C(NCC1CCN(C(=O)COc2cccc([C@](O)(C(=O)OCC3CCN(Cc4ccccc4)CC3)c3ccccc3)c2)CC1)c1ccc(CNC[C@H](O)c2ccc(O)c3[nH]c(=O)ccc23)cc1 [Compound 61, (1-benzylpiperidin-4-yl)methyl (S)-2-hydroxy-2-(3-(2-(4-((4-((((R)-2-hydroxy-2-(8-hydroxy-2-oxo-1,2-dihydroquinolin-5-yl)ethyl)amino)methyl)benzamido)methyl)piperidin-1-yl)-2-oxoethoxy)phenyl)-2-phenylacetate] | 0.3 to 3 | < 0.3 |
